Test system: PC-3 cells
Assay: PC-3 Oxygen Rate Consumption (OCR) Assay
Type: cell-based
Details: Homo sapiens, 0.05 h, medium with 2% FBS, OCR at 3-min post-injection normalized to % increase over DMSO-treated cells, concentration for half-maximal OCR increase, read-out: EC50-PC3-OCR-FBS-3min
Experimental: PC-3 Oxygen Rate Consumption (OCR) Assay Procedure:
One day before the assay, PC-3 cells were seeded at 2.5×10^4 cells/160 μL/well in a 96-well XFe96 cell plate, part of a FlexPak containing a cell plate and a cartridge (Agilent, Sunnyvale, CA). The cells were incubated overnight at 37° C. in a 5% CO2 and 90% humidity incubator with F12K culture medium (ThermoFisher Scientific/Invitrogen, Grand Island, NY) containing 10% FBS and 1% penicillin/streptomycin. On the day of the assay, the cells were washed twice with 300 µL/well Medium A [XF assay medium (Agilent) supplemented 10 mM glucose, 1 mM pyruvate, and 2% fetal bovine serum (FBS)], and incubated with 175 µL/well Media A for 1 hr in a 37° C., non-CO2 incubator prior to the measurement of cellular respiration. Compounds of interests were prepared in 1:2 serial dilutions with 100% DMSO and then further diluted into 8× working stock with Media A prior to being loaded to Injection Port A on a XFe96 Analyzer (Agilent). Six replicates were used for each treatment. The cartridge was calibrated in the XFe96 Analyzer 30 minute prior to the measurement of cellular respiration. Basal levels of OCR were measured three times, each using a “3-minute mixing/3-minute measurement” program. The compound effect was measured immediately after compound injection from Injection Port A, and OCR was monitored continuously 10 times, each time using a “1-minute mixing/2-minute measurement” program for a total of 30 minutes post compound injection. The level of OCR at 3-min post-injection was normalized to % increase over DMSO-treated cells. The concentration of compound required to reach the half-maximal OCR increase was defined as EC50 Table 2 contains PC3 OCR EC50 values for the compounds disclosed.

Going from `N#CC12CCC(NC(=O)c3cc(C(F)(F)F)ccc3NS(=O)(=O)N3CCOCC3)(CC1)CC2` [Example 178, N-(4-cyanobicyclo[2.2.2]octan-1-yl)-2-(morpholine-4-sulfonamido)-5-(trifluoromethyl)benzamide] to `N#CC12CCC(NC(=O)c3cc(C(F)(F)F)ccc3NS(=O)(=O)C3CCOCC3)(CC1)CC2` [Example 204, N-(4-cyanobicyclo[2.2.2]octan-1-yl)-2-((tetrahydro-2H-pyran)-4-sulfonamido)-5-(trifluoromethyl)benzamide], the EC50 rises from 5.93 µM to 15.7 µM (2.6-fold).

Going from `CS(=O)(=O)c1ccc(S(=O)(=O)Nc2ccc(Cl)cc2C(=O)NC23CC(C(F)(F)F)(C2)C3)cc1` [Example 90, 5-chloro-2-((4-(methylsulfonyl)phenyl)sulfonamido)-N-(3-(trifluoromethyl)bicyclo[1.1.1]pentan-1-yl)benzamide] to `CS(=O)(=O)c1ccc(S(=O)(=O)Nc2cc(C(F)(F)F)ccc2C(=O)NC23CC(C(F)(F)F)(C2)C3)cc1` [Example 8, 2-((4-(methylsulfonyl)phenyl)sulfonamido)-4-(trifluoromethyl)-N-(3-(trifluoromethyl)bicyclo[1.1.1]pentan-1-yl)benzamide], the EC50 rises from 2.67 µM to 4.1 µM (1.5-fold). The first is the more potent here.

Compared with `COC1CN(S(=O)(=O)Nc2ccc(C(F)(F)F)cc2C(=O)NC23CCC(C#N)(CC2)CC3)C1` [Example 182, N-(4-cyanobicyclo[2.2.2]octan-1-yl)-2-((3-methoxyazetidine)-1-sulfonamido)-5-(trifluoromethyl)benzamide], `COC1(C)CN(S(=O)(=O)Nc2ccc(C(F)(F)F)cc2C(=O)NC23CCC(C#N)(CC2)CC3)C1` [Example 225, N-(4-cyanobicyclo[2.2.2]octan-1-yl)-2-((3-methoxy-3-methylazetidine)-1-sulfonamido)-5-(trifluoromethyl)benzamide] is 1.9-fold lower in EC50: 13 µM for the first, 6.74 µM for the second.

Compared with `CC(C)(C)S(=O)(=O)Nc1ccc(Cl)cc1C(=O)NC12CC(C(F)(F)F)(C1)C2` [Example 84, 5-chloro-2-((1,1-dimethylethyl)sulfonamido)-N-(3-(trifluoromethyl)bicyclo[1.1.1]pentan-1-yl)benzamide], `N#CCCS(=O)(=O)Nc1ccc(Cl)cc1C(=O)NC12CC(C(F)(F)F)(C1)C2` [Example 228, 5-chloro-2-((2-cyanoethyl)sulfonamido)-N-(3-(trifluoromethyl)bicyclo[1.1.1]pentan-1-yl)benzamide] is 3.2-fold higher in EC50: 1.04 µM for the first, 3.37 µM for the second.

First: O=C(NC12CC(C(F)(F)F)(C1)C2)c1ccc(F)cc1NS(=O)(=O)c1ncccn1 [Example 149, 4-fluoro-2-(pyrimidine-2-sulfonamido)-N-(3-(trifluoromethyl)bicyclo[1.1.1]pentan-1-yl)benzamide]
Second: O=C(NC12CC(C(F)(F)F)(C1)C2)c1ccc(C(F)(F)F)cc1NS(=O)(=O)c1ccc(F)cc1 [Example 109]
The EC50 of the first is higher: no less than 20 µM for the first, 0.38 µM for the second. The second is the more potent here.

`N#CC12CCC(NC(=O)c3ccc(F)cc3NS(=O)(=O)CCC(F)(F)F)(CC1)C2` [Example 223, N-(4-cyanobicyclo[2.2.1]heptan-1-yl)-4-fluoro-2-((3,3,3-trifluoropropyl)sulfonamido)benzamide] and `CC1(S(=O)(=O)Nc2cc(C(F)(F)F)ccc2C(=O)NC23CCC(C#N)(CC2)CC3)CC1` [Example 67, N-(4-cyanobicyclo[2.2.2]octan-1-yl)-2-((1-methylcyclopropane)-1-sulfonamido)-4-(trifluoromethyl)benzamide] are within 1.5-fold of each other in EC50: 4.43 µM for the first, 5.92 µM for the second.

Compared with `O=C(NC12CC(C(F)(F)F)(C1)C2)c1ccc(C(F)(F)F)cc1NS(=O)(=O)c1ccc(N2CCS(=O)(=O)CC2)cc1` [Example 106, 2-((4-(1,1-dioxidothiomorpholino)phenyl)sulfonamido)-4-(trifluoromethyl)-N-(3-(trifluoromethyl)bicyclo[1.1.1]pentan-1-yl)benzamide], `O=C(NC12CC(C(F)(F)F)(C1)C2)c1ccc(C(F)(F)F)cc1NS(=O)(=O)c1ccc(N2CCCS2(=O)=O)cc1` [Example 29, 2-((4-(1,1-dioxidoisothiazolidin-2-yl)phenyl)sulfonamido)-4-(trifluoromethyl)-N-(3-(trifluoromethyl)bicyclo[1.1.1]pentan-1-yl)benzamide] is 2.1-fold lower in EC50: 18.8 µM for the first, 8.8 µM for the second.

Compared with `CS(=O)(=O)N1C2CCC1CN(S(=O)(=O)Nc1ccc(C(F)(F)F)cc1C(=O)NC13CCC(C#N)(CC1)CC3)C2` [Example 246, N-(4-cyanobicyclo[2.2.2]octan-1-yl)-2-(((1R,5S)-8-(methylsulfonyl)-3,8-diazabicyclo[3.2.1]octane)-3-sulfonamido)-5-(trifluoromethyl)benzamide], `N#CC12CCC(NC(=O)c3cc(C(F)(F)F)ccc3NS(=O)(=O)C3COC3)(CC1)CC2` [Example 75, N-(4-cyanobicyclo[2.2.2]octan-1-yl)-2-(oxetane-3-sulfonamido)-5-(trifluoromethyl)benzamide] is 1.8-fold higher in EC50: 14.5 µM for the first, 25.9 µM for the second. The first is the more potent here.

First: CC(C)(C)S(=O)(=O)Nc1ccc(C(F)(F)F)cc1C(=O)NC12CC(C#N)(C1)C2 [Example 164, N-(3-cyanobicyclo[1.1.1]pentan-1-yl)-2-((1,1-dimethylethyl)sulfonamido)-5-(trifluoromethyl)benzamide]
Second: CN(C)S(=O)(=O)Nc1ccc(C(F)(F)F)cc1C(=O)NC12CC(C#N)(C1)C2 [Example 244, N-(3-cyanobicyclo[1.1.1]pentan-1-yl)-2-((N,N-dimethylsulfamoyl)amino)-5-(trifluoromethyl)benzamide]
The EC50 of the first is 4.4-fold lower: 1.74 µM for the first, 7.65 µM for the second. The first is the more potent here.

`N#Cc1ccc(NS(=O)(=O)N2CCCC2)c(C(=O)NC23CCC(C#N)(CC2)CC3)c1` [Example 131, 5-cyano-N-(4-cyanobicyclo[2.2.2]octan-1-yl)-2-(pyrrolidine-1-sulfonamido)benzamide] and `CCCCS(=O)(=O)Nc1ccc(C#N)cc1C(=O)NC12CCC(C#N)(CC1)CC2` [Example 129, 2-(butylsulfonamido)-5-cyano-N-(4-cyanobicyclo[2.2.2]octan-1-yl)benzamide] are within 1.5-fold of each other in EC50: 19.5 µM for the first, 24.3 µM for the second.

First: N#CC12CC(NC(=O)c3ccc(C(F)(F)F)cc3NS(=O)(=O)c3c(Cl)cc(Cl)cc3Cl)(C1)C2 [Example 40, N-(3-cyanobicyclo[1.1.1]pentan-1-yl)-2-((2,4,6-trichlorophenyl)sulfonamido)-4-(trifluoromethyl)benzamide]
Second: CC(C)(C)c1ccc(S(=O)(=O)Nc2cc(C(F)(F)F)ccc2C(=O)NC23CC(C#N)(C2)C3)cc1 [Example 7, 2-((4-(tert-butyl)phenyl)sulfonamido)-N-(3-cyanobicyclo[1.1.1]pentan-1-yl)-4-(trifluoromethyl)benzamide]
The EC50 of the first is 8.1-fold higher: 6.58 µM for the first, 0.813 µM for the second.

`O=C(NC12CC(Cl)(C1)C2)c1cc(C(F)(F)F)ccc1NS(=O)(=O)C1COC1` [Example 74, N-(3-chlorobicyclo[1.1.1]pentan-1-yl)-2-(oxetane-3-sulfonamido)-5-(trifluoromethyl)benzamide] and `CC(C)S(=O)(=O)Nc1cc(C(F)(F)F)ccc1C(=O)NC12CC(C1)C2` [Example 55, N-(bicyclo[1.1.1]pentan-1-yl)-2-((1-methylethyl)sulfonamido)-4-(trifluoromethyl)benzamide] are within 1.5-fold of each other in EC50: 6.17 µM for the first, 6.32 µM for the second.

Going from `CS(=O)(=O)Nc1ccc(OC(F)(F)F)cc1C(=O)NC12CCC(C#N)(CC1)CC2` [Example 185, N-(4-cyanobicyclo[2.2.2]octan-1-yl)-2-(methylsulfonamido)-5-(trifluoromethoxy)benzamide] to `N#CC12CCC(NC(=O)c3cc(C(F)(F)F)ccc3NS(=O)(=O)c3ccc(F)cc3)(CC1)CC2` [Example 119, N-(4-cyanobicyclo[2.2.2]octan-1-yl)-2-((4-fluorophenyl)sulfonamido)-5-(trifluoromethyl)benzamide], the EC50 falls from 32 µM to 1.26 µM (25-fold). The second is the more potent here.

First: NC(=O)c1ccc(S(=O)(=O)Nc2cc(C(F)(F)F)ccc2C(=O)NC23CC(c4ccccc4)(C2)C3)cc1 [Example 51, 2-((4-carbamoylphenyl)sulfonamido)-N-(3-phenylbicyclo[1.1.1]pentan-1-yl)-4-(trifluoromethyl)benzamide]
Second: O=C(NC12CC(c3ccccc3)(C1)C2)c1ccc(C(F)(F)F)cc1NS(=O)(=O)c1ccc(S(=O)(=O)C(F)F)cc1 [Example 44, 2-((4-((difluoromethyl)sulfonyl)phenyl)sulfonamido)-N-(3-phenylbicyclo[1.1.1]pentan-1-yl)-4-(trifluoromethyl)benzamide]
The EC50 of the first is 25-fold higher: 28.8 µM for the first, 1.16 µM for the second. The second is the more potent here.

Going from `CS(=O)(=O)c1ccc(S(=O)(=O)Nc2cc(S(F)(F)(F)(F)F)ccc2C(=O)NC23CC(C(F)(F)F)(C2)C3)cc1` [Example 154, 2-((4-(methylsulfonyl)phenyl)sulfonamido)-4-(pentafluoro-λ^6-sulfanyl)-N-(3-(trifluoromethyl)bicyclo[1.1.1]pentan-1-yl)benzamide] to `CCS(=O)(=O)c1ccc(S(=O)(=O)Nc2cc(C(F)(F)F)ccc2C(=O)NC23CC(C(F)(F)F)(C2)C3)cc1` [Example 24, 2-((4-(ethylsulfonyl)phenyl)sulfonamido)-4-(trifluoromethyl)-N-(3-(trifluoromethyl)bicyclo[1.1.1]pentan-1-yl)benzamide], the EC50 falls from 8.02 µM to 3.32 µM (2.4-fold).

Reference: patent US12049439B2 (OrsoBio, Inc., priority 2018, dated 2024)
